Laboratory results published in patent publication US12318452B2, “Degraders of WEE1 kinase” (DANA-FARBER CANCER INSTITUTE, INC., priority 2018, dated 2025).
Where “and” joins values, the source holds several entries; their conditions need not be identical. Equal values may be shown once.

Assays:
MOLT4 cells = test: Cell cycle analysis by propidium iodide staining; assay type: cell-based
Experimental: MOLT4 cells were plated at 1.5 million cells per well in a 6-well plate, with 3 mL of media per well. Immediately after plating, cells were treated with the indicated concentrations of the indicated compound. At the indicated time points, cells were collected by transferring each well to a 15 mL conical, centrifuging (1000 rpm for 3 min), and then washing the cell pellet 3× with cold PBS. Cell pellets were then fixed with 1 mL cold 80% ethanol in PBS at 4° C. overnight. The cell pellets were then washed by adding 1 mL of PBS and then centrifuging (1500 rpm for 5 minutes), followed by aspiration of the PBS/ethanol mix. Cells were resuspended in cell cycle staining solution (100 μg/mL of RNAse A (Roche, 10109169001) and 50 μg/mL propidium iodide (Life Technologies™, P1304MP), diluted in PBS, and incubated for 10 minutes at room temperature. Cell cycle data was acquired by flow cytometry on a Guava® easyCyte™ flow cytometer (Millipore™) using the InCyte™ software. Data was analyzed using FlowJo®. N=3 biological replicates were used for each treatment condition.

[1] = test system: MOLT4 cells (parental, wild type); test: CellTiter-Glo cell viability, 72 hours; assay type: cell-based
Experimental: The indicated cell lines were plated in flat bottom 384-well plates (Corning® cat #3570). MOLT4 cells were plated at a density of 3,000 cells per well in 50 μL media, while OVCAR8, COV362, and Kuramochi cells were plated at a density of 750 cells per well in 50 μL media. Cells were treated the next day (except for MOLT4 cells, which were treated the same day as plating) with 0.1 μL of the indicated compounds in a four-fold dilution series using the Janus pinner. Cells were incubated with compounds for 72 hours at 37° C. 5% CO2. Anti-proliferative effects were then assessed by CellTiter-Glo® Luminescent Cell Viability Assay (Promega™ cat #G7570) according to the manufacturer's standards, measuring luminescence using an EnVision® plate-reader. IC50 values were determined using a non-linear regression curve fit in GraphPad Prism 8. N=4 biological replicates were used for each treatment condition.
MOLT4 cells were plated in a 384-well plate at 5,000 cells per well in 50 μL media (RPMI+10% FBS+1% Penn/Strep) and treated with 0.1 μL of the candidate compounds in four-fold dilution series using the Janus pinner. Cells were incubated with compounds for 72 hours at 37° C. 5% CO2. Anti-proliferative effects of these compounds were assessed 72 hours after compound addition using CellTiter-Glo® (Promega, cat #G7571). All proliferation assays were performed in biological quadruplicate. […] Effects upon cell viability for compound 13 in the MOLT4 WT cells are therefore likely driven in part by Wee1 inhibition, and in part by CRBN-mediated Wee1 degradation. […] Degradation of Wee1 with compound 21 was mediated by VHL.

PLK1 = PLK1 (Homo sapiens, UniProt P53350); test: Z′-LYTE kinase activity assay for PLK1; assay type: biochemical; design: purchased Life Technologies (Invitrogen) commercial assay service; conditions: Km ATP, average of two replicates ± SD
Chain of PLK1 (P53350 whole entry): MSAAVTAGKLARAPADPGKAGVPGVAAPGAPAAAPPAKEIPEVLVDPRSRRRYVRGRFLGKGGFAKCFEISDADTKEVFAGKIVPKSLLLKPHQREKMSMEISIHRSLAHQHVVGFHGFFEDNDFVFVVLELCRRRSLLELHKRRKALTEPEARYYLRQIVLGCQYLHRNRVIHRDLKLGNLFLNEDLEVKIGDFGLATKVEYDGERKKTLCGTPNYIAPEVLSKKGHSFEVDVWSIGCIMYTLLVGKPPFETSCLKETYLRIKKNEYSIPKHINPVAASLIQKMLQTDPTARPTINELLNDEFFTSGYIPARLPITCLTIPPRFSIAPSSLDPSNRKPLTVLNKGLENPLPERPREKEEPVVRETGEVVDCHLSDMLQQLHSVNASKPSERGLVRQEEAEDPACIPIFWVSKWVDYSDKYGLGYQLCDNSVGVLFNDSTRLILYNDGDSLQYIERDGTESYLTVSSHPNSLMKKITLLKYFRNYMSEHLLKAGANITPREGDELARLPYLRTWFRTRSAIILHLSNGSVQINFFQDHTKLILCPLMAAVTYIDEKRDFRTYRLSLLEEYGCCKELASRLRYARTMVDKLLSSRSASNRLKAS
Experimental: (§1) LanthaScreen™ assays were conducted for Wee1 in a 10-point dose response as performed in the commercial assay service by Life Technologies™. Z′-LYTE™ assays were conducted for PLK1 as performed in the commercial assay service by Life Technologies™ in a 10-point dose response using Km ATP concentrations.
The selectivity of Wee1 degradation was then assessed by performing multiplexed mass spectrometry (MS)-based proteomics in MOLT4 cells treated with 100 nM of compound 13 for 2 hours (Donovan et al., Elife 7:e38430 (2018)).

Wee1 [2] = molecular target: T1, Wee1 (Homo sapiens, UniProt P30291); test: LanthaScreen FRET-based biochemical binding assay for Wee1; conditions: LanthaScreen Binding activity assay; average of two replicates ± SD
T1 sequence (P30291 whole entry): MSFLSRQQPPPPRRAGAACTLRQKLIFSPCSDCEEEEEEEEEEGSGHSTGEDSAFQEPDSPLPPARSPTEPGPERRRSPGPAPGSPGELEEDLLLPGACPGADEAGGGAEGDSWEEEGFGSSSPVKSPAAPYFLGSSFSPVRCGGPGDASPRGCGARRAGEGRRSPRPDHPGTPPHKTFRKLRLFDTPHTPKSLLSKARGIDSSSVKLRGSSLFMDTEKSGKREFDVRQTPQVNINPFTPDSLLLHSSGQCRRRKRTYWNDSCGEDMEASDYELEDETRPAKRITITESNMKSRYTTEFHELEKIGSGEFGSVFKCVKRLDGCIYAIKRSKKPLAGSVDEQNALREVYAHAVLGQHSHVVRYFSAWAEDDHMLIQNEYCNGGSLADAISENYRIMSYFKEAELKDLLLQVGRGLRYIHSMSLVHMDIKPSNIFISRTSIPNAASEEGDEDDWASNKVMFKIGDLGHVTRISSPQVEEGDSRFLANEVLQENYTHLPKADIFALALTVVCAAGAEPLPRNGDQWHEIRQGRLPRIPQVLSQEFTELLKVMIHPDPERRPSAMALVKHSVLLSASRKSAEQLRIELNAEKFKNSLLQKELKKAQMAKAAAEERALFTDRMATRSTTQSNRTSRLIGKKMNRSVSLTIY
Experimental: as §1

Wee1 [3] = molecular target: T1, Wee1; test: Wee1 degradation immunoblot in MOLT4 cells, 5-hr dose response and time course; assay type: cell-based; design: endogenous in cells; host or cells: MOLT4 (wild type; CRBN-/- as control); conditions: MOLT4 cells
Experimental: (§2) Whole cell lysates for immunoblotting were prepared by pelleting cells from each cell line at 4° C. (300 g) for 5 minutes. The resulting cell pellets were washed 1× with ice-cold PBS and then resuspended in RIPA lysis buffer (Sigma, cat #R0278) supplemented with protease and phosphatase inhibitor tablets (Roche cat #4906845001). Lysates were clarified at 14,000 rpm for 15 minutes at 4° C. prior to quantification by BCA assay (Pierce™, cat #23225). Whole cell lysates were loaded into Bolt 4-12% Bis-Tris Gels (Thermo Fisher, cat #NW04120BOX) and separated by electrophoreses at 95 V for 1.5 hours. The gels were transferred to a nitrocellulose membrane using the iBlot® Gel Transfer at P3 for 7 minutes (Thermo Fisher, cat #IB23001) and then blocked for 1 hour at room temperature in Odyssey® blocking buffer (LICOR® Biosciences, cat #927-50010). Membranes were probed using antibodies against the relevant proteins at 4° C. overnight in 20% Odyssey® Blocking Buffer in 1×TBST. Membranes were then washed three times with 1×TBST (at least 5 minutes per wash) followed by incubation with the IRDye® goat anti-mouse (LICOR®, cat #926-32210) or goat anti-rabbit (LICOR®, cat #926-32211) secondary antibody (diluted 1:10,000) in 20% Odyssey® Blocking Buffer in 1×TBST for 1 hour at room temperature. After three washes with 1×TBST (at least 5 minutes per wash), the immunoblots were visualized using the ODYSSEY® Infrared Imaging System (LICOR®).
(§3) MOLT4 cells were plated at 1.5 million cells per well in a 6-well plate, with 3 mL of media per well. Cells were then immediately treated with the indicated concentration of the indicated compound and incubated for the indicated amount of time. Cells were collected by transferring each well to a 15 mL conical, centrifuging (1000 rpm for 3 min), then washing the cell pellet 2× with cold PBS. Each cell pellet was then lysed in 100 μL of RIPA lysis buffer (+protease/phosphatase inhibitors). Samples were normalized and prepped in 4×LDS+10% β-mercaptoethanol and boiled for 5 min at 95° C. Lysates were probed for specified proteins by western blotting using the Bolt® system (Life Technologies™)
To confirm that compound 13-mediated Wee1 degradation is CRBN dependent (FIG. 1D), Wee1 degradation profiles in parental versus CRBN^−/− MOLT4 cells were compared. In parental MOLT4 cells, compound 13 induced potent Wee1 degradation after 5 hours, with maximal degradation observed at 100 nM and a “hook effect” apparent at the top concentration of 10 μM, where compound 13:CRBN and compound 13-Wee1 binary complexes inhibit the formation of a productive ternary complex (Toure and Crews, Angew. Chem. 55:1966-1973 (2016)).
To evaluate the kinetics of Wee1 degradation, a time course study was performed in MOLT4 cells using 100 nM compound 13. Degradation occurred rapidly, with over 50% degradation achieved within 30 min, and complete degradation reached by 3 hr (FIG. 4C).

Wee1 [4] = molecular target: T1, Wee1; test: Cellular degradation of Wee1 by immunoblot, 6-hour treatment of MOLT4 cells; assay type: cell-based; design: endogenous in cells; host or cells: MOLT4 (wild type; CRBN-/- as control); conditions: MOLT-4, 1 μM, MOLT4 cells, approximated by immunoblot, read-out: Extent of Degradation of Wee1
Experimental: General Protocol: HT-29, MOLT4 wild type (WT) or CRBN^-/- cells were plated in a 6 well plate and treated for 6 hours with the indicated concentrations of the inventive compounds and control. HT-29 cells were cultured in McCoy's Media supplemented with 10% FBS and 1% Penicillin/Streptomycin. MOLT4 WT and CRBN^-/- cells were cultured in Roswell Park Memorial Institute (RPMI) medium supplemented with 10% FBS and 1% Penicillin/Streptomycin. Mycoplasma testing was performed every month and all lines were negative. Immunoblotting: Cells were washed with phosphate-buffered saline (PBS) and then lysed using radioimmunoprecipitation assay (RIPA) buffer supplemented with protease and phosphatase inhibitor cocktail (Roche) on ice for 15 minutes. The lysates were centrifuged at 14,000 rpm for 15 minutes at 4° C. and protein was quantified by bicinchoninic acid (BCA) assay (PierceTM). Primary antibodies used include: Wee1 ([…]) (Cell Signaling Technology®, 13084S), polo-like kinase 1 (PLK1) (Thermo Fisher Scientific, 37-7000), phosphor-cdc2 (Y15) (10A11) (Cell Signaling Technology®, […]), phospho-histone H3 ([…]) (Cell Signaling Technology®, […]), Ikaros ([…]) (Cell Signaling Technology®, 14859S), Aiolos ([…]) (Cell Signaling Technology®, 15103), casein kinase 1 alpha (Abcam®, 108296), β-actin (Cell Signaling Technology®, 8H10D10). FIG. 2A is an immunoblot showing that compound 13 degraded Wee1 after a 6-hour treatment in MOLT4 cells, and induced the downstream changes expected from Wee1 loss-including a decrease in phosphorylated cyclin-dependent kinase 1 (pCDK1) (Y15) and an increase in pH 3. […] Degradation of Wee1 by compound 13 was rescued in MOLT4 CRBN^-/- cells. MOLT4 WT and CRBN^-/- cells were plated in a 6-well plate at 2.25 million cells per well in 3 mL media (RPMI+10% FBS+1% Penn/Strep). After treatment with the indicated concentrations of candidate compounds, cells were incubated for 6 hours at 37° C. 5% CO2. To harvest, the cells were washed 1× with cold PBS, then collected by centrifugation. Cell pellets were lysed in RIPA buffer with protease and phosphatase inhibitors (Roche). Lysates were clarified by centrifugation, and protein concentrations were normalized using a BCA assay (Thermo ScientificTM). The samples were diluted with 4×LDS+10% β-mercaptoethanol, and were boiled at 95° C. for 5 minutes. Proteins of interest were then assessed by western blotting. […] The experimental protocol was the same as in Example 28.

pCDK1 Y15 = test: Downstream signalling immunoblot in MOLT4 cells (pCDK1 Y15, cleaved PARP, γH2Ax); assay type: cell-based; conditions: 24-hr, MOLT4 cells
Experimental: as §2, §3
The effects of targeted Wee1 degradation on the cell cycle were evaluated. Wee1 is required for the temporal regulation of CDK1 at the G2/M cell-cycle checkpoint, and Wee1 loss therefore […] via activation of CDK1. Following loss of Wee1 activity, cells are expected to enter mitosis before completing DNA repair, ultimately resulting in excessive unrepaired DNA damage, mitotic catastrophe, and apoptosis (Beck et al., Mol. Cell Biol. 32:4226-4236 (2012)).

Q: With `Nc1cccc2c1CN(C1CCC(=O)NC1=O)C2=O` (stereo not drawn) [Lenalidomide, reference compound] as the molecule, how does the “Effect on the cell cycle” value (MOLT4 cells; 1 μM, 24 hours, MOLT4 cells) read?
A: did not induce any significant changes

Q: And the Antiproliferative activity ([1]; 72-hr)?
A: no detectable antiproliferative activity

Q: How did the IC50 (PLK1) turn out when `C=CCn1c(=O)c2cnc(Nc3ccc(N4CCN(CCOCCOCCOCCNc5cccc6c5C(=O)N(C5CCC(=O)NC5=O)C6=O)CC4)cc3)nc2n1-c1cccc(C(C)(C)O)n1` (stereo not drawn) [Compound 12, 4-((2-(2-(2-(2-(4-(4-((2-allyl-1-(6-(2-hydroxypropan-2-yl)pyridin-2-yl)-3-oxo-2,3-dihydro-1H-pyrazolo[3,4-d]pyrimidin-6-yl)amino)phenyl)piperazin-1-yl)ethoxy)ethoxy)ethoxy)ethyl)amino)-2-(2,6-dioxopiperidin-3-yl)isoindoline-1,3-dione] was run?
A: 285 ± 14 nM

Q: And the IC50 (Wee1 [2])?
A: 1 to 10 nM and 3.18 nM

Q: What about the “Concentration giving maximal (sufficient) Wee1 degradation” value (Wee1 [3]; 5-hr treatment) of the same molecule?
A: 100 nM

Q: What about the percent Wee1 degradation at 1 µM (Wee1 [4]) of the same molecule?
A: > 50%

Q: For `C=CCn1c(=O)c2cnc(Nc3ccc(N4CCN(C)CC4)cc3)nc2n1-c1cccc(C(C)(C)O)n1` [AZD1775, 2-allyl-1-[6-(1-hydroxy-1-methylethyl)pyridin-2-yl]-6-{[4-(4-methylpipera-zin-1-yl)phenyl]amino}-1,2-dihydro-3H-pyrazolo[3,4-d]pyrimidin-3-one, reference compound], which IC50 (PLK1) is on record?
A: 212 ± 12 nM

Q: What about the “Effect on the cell cycle” value (MOLT4 cells; 100 nM, 24-hr, MOLT4 cells) of the same molecule?
A: did not appreciably affect the cell cycle

Q: And the “Dose needed to elicit the same cell cycle changes as 100 nM of compound 13” value (MOLT4 cells; 24-hr, MOLT4 cells)?
A: 1 µM

Q: What about the “Cell cycle effects in CRBN−/− cells” value (MOLT4 cells; CRBN−/− MOLT4 cells, 24 hours) of the same molecule?
A: unchanged

Q: What about the “Downstream signalling changes (pCDK1 Y15, PARP cleavage, γH2Ax)” value (pCDK1 Y15; 100 nM) of the same molecule?
A: did not produce any noticeable changes

Q: And the “Treatment necessary to induce the same downstream changes as 100 nM of compound 13” value (pCDK1 Y15)?
A: 1 µM

Q: What about the IC50 ([1]; Homo sapiens, MOLT-4, 72 hours, read-out: Antiproliferative IC50) of the same molecule?
A: 800 nM

Q: Which IC50 (PLK1) does the source give for `C=CCn1c(=O)c2cnc(Nc3ccc(N4CCN(CCCCCCNc5cccc6c5C(=O)N(C5CCC(=O)NC5=O)C6=O)CC4)cc3)nc2n1-c1cccc(C(C)(C)O)n1` (stereo not drawn) [Compound 11, 4-((6-(4-(4-((2-allyl-1-(6-(2-hydroxypropan-2-yl)pyridin-2-yl)-3-oxo-2,3-dihydro-1H-pyrazolo[3,4-d]pyrimidin-6-yl)amino)phenyl)piperazin-1-yl)hexyl)amino)-2-(2,6-dioxopiperidin-3-yl)isoindoline-1,3-dione] here?
A: 23.6 ± 4 nM

Q: What about the IC50 (Wee1 [2]) of the same molecule?
A: 4.46 ± 0.95 nM

Q: And the Wee1 degradation (Wee1 [3]; 5-hr exposure, 100 nM-10 μM)?
A: degraded Wee1

Q: And the percent Wee1 degradation at 1 µM (Wee1 [4])?
A: 25 to 50%

Q: Which results are given for `C=CCn1c(=O)c2cnc(Nc3ccc(N4CCN(CCCNC(=O)CCOCCOCCNc5cccc6c5C(=O)N(C5CCC(=O)NC5=O)C6=O)CC4)cc3)nc2n1-c1cccc(C(C)(C)O)n1` (stereo not drawn) [Compound 7, N-(3-(4-(4-((2-allyl-1-(6-(2-hydroxypropan-2-yl)pyridin-2-yl)-3-oxo-2,3-dihydro-1H-pyrazolo[3,4-d]pyrimidin-6-yl)amino)phenyl)piperazin-1-yl)propyl)-3-(2-(2-((2-(2,6-dioxopiperidin-3-yl)-1,3-dioxoisoindolin-4-yl)amino)ethoxy)ethoxy)propanamide]?
A: IC50 (PLK1): 118 ± 6 nM; IC50 (Wee1 [2]): 1 to 10 nM and 7.28 nM; Concentration required to achieve maximal Wee1 degradation (Wee1 [3]; 5-hr treatment): 1 µM; percent Wee1 degradation at 1 µM (Wee1 [4]): > 50%
